Source: patent US11999806B2, “Broad-spectrum polypeptide against enterovirus and application thereof” (WUHAN INSTITUTE OF VIROLOGY, CHINESE ACADEMY OF SCIENCES, priority 2018, dated 2024)
“And” between values parts separate entries of the source, which are not always exact repeats. Identical values can stand only once. Non-standard residues stand in square brackets, D forms with d. Residues, ends and D or L forms follow the SMILES beside them. No end group written: not given here.

How the values were obtained:
EV71 [1] = test: Antiviral activity against EV71 in mice, virus copies in lung by qRT-PCR; format: in vivo, ICR mice
From the text: • (1) 10 2-day-old ICR mice were randomly divided into two groups, 5 in each group.

[2] = 20 mg/kg i.p. once daily for 3 days
From the text: • (1) A total of 12 10-day-old suckling mice were randomly divided into two groups, 6 in each group.

EV71 [3] = test: Anti-EV71 efficiency in Huh7.5 cells, viral RNA by qRT-PCR; format: cell-based, enterovirus 71; settings: read-out: IC50 against EV71 by qRT-PCR
From the text: […]

EV71 [4] = test: Anti-EV71 efficiency in Vero cells, viral RNA by qRT-PCR; format: cell-based, enterovirus 71; settings: read-out: IC50 against EV71 by qRT-PCR
From the text: […]

CVB3 = test: Anti-CVB3 effect in Vero cells, qRT-PCR; format: cell-based, Coxsackievirus B3; settings: text of Example 21, read-out: IC50 against CVB3
Method: • (1) Vero cells were plated in a 24-well cell plate. • (2) After the cells reached 70%-80% confluence, the MEM medium containing 10% serum was replaced with a MEM medium containing 2% serum and CVB3 virus, 0.5 ml per well. MOI of the virus was 0.01. […]

[5] = Cytotoxicity by CCK-8 in Vero cells; format: cell-based; settings: 24 h, read-out: Cell viability (%)
Method: (§1) The experiment was performed as follows. • (1) Vero cells were plated in a 96-well plate at 100 μl per well. • (2) After the cells reached 70%-80% confluence, the MEM medium containing 10% serum was replaced with a MEM medium containing 2% serum. Then, polypeptide BP8, BP10 or BP15 was added to generate gradient concentrations of […], […], 12.5 μM, 25 μM, 50 μM, 100 μM, and 200 μM (final concentrations), respectively. • (3) The samples were collected 24 hours after the addition of the polypeptide, and 10 μl of live cell detection reagent CCK-8 was added to each well and mixed well. • (4) The plate was placed at 37° C. for 4 h. • (5) The absorbance value at OD450 was measured with a microplate reader.

Vero cells = test: Cytotoxicity by CCK-8 in Vero cells; format: cell-based; settings: for Cell viability (%): 24 h
Method: as §1

Compound: CC(=O)N[C@H](CCCNC(=N)N)C(=O)N[C@H](CS)C(=O)N[C@H](Cc1ccc(O)cc1)C(=O)N[C@H](CCC(N)=O)C(=O)N[C@H](CCCNC(=N)N)C(=O)N[C@@H](C(=O)N[C@H](CCC(=O)O)C(=O)N[C@H](CCC(=O)O)C(=O)N1CCC[C@@H]1C(=O)N1CCC[C@@H]1C(=O)N[C@H](CCCNC(=N)N)C(=O)N[C@H](CCCNC(=N)N)C(=O)N[C@H](CCCNC(=N)N)C(=O)N[C@H](CCC(N)=O)C(=O)N[C@H](CCCNC(=N)N)C(=O)N[C@H](CCCNC(=N)N)C(=O)N[C@H](CCCCN)C(=O)N[C@H](CCCCN)C(=O)N[C@H](CCCNC(=N)N)C(=O)NCC(=O)N[C@H](Cc1ccc(O)cc1)C(N)=O)C(C)C [ER-DRI] (Ac-[dR][dC][dY][dQ][dR][dV][dE][dE][dP][dP][dR][dR][dR][dQ][dR][dR][dK][dK][dR]G[dY]-NH2)
- EV71 viral load in mouse lung, in words (EV71 [1]; 10 mg/kg i.p. every 12 h for 5 days vs PBS): can significantly reduce the viral load of EV71 in the mouse lung
- Number of virus copy in lung tissue (Copies/g) (EV71 [1]; 2-day-old ICR mice, EV71 i.p., 10 mg/kg i.p. every 12 h for 5 days, individual animals, 10 mg/kg): 294534 Copies/g and 484192 Copies/g and 2956937 Copies/g and 549759 Copies/g and 116302 Copies/g
- HE staining of brain, liver, lung and kidney, in words ([2]; four weeks after administration): no significant pathological change in the brain, liver, lung and kidney
- body weight vs PBS group, in words ([2]; 10-day-old suckling mice, weight recorded 15 days): no significant difference in body weight

Compound: RRRRRRRREEVRQYCRDQ [P2]
- IC50 (EV71 [3]): 1840 nM
- IC50 (EV71 [4]): 1960 nM

Compound: YGRKKRRQRRRGSGEAVREYCK [BP8]
- IC50 (CVB3): 4120 nM
- viability at 24 h, 3.0625 µM ([5]; 3.0625 μM): 103%
- viability at 24 h, 6.125 µM ([5]; 6.125 μM): 101%
- viability at 24 h, 12.5 µM ([5]; 12.5 μM): 95.5%
- viability at 24 h, 25 µM ([5]; 25 μM): 96.6%
- viability at 24 h, 50 µM ([5]; 50 μM): 94.4%
- viability at 24 h, 100 µM ([5]; 100 μM): 99.7%
- viability at 24 h, 200 µM ([5]; 200 μM): 87.2%
- Cell viability (%) (Vero cells; 3.0625 μM): 105.2007% and 108.7417%
- Cell viability (%) (Vero cells; 6.125 μM): 111.3814% and 119.3004%
- Cell viability (%) (Vero cells; 12.5 μM): 106.8102% and 109.1924%
- Cell viability (%) (Vero cells; 25 μM): 99.47% and 113.6348%
- Cell viability (%) (Vero cells; 50 μM): 108.2266% and 112.4759%
- Cell viability (%) (Vero cells; 100 μM): 96.7% and 97.35%
- Cell viability (%) (Vero cells; 200 μM): 92.0023% and 92.52%
- cytotoxicity, result in words (Vero cells; CCK-8, 24 h): not toxic to cells within 200 μM
